The source of these data is patent US9248203B2, “Fluorescent imaging with substituted cyanine dyes” (LI-COR, INC., priority 2010, dated 2016).

The test system of one data set is U87GM cells. The data set is described as follows: Immunocytochemical binding, blocking and dye control assay, U87GM. It is filed as cell-based. Particulars: dye control up to 5 μM, FIG. 7C. The method, then:
RGD (Arg-Gly-Asp), the recognition motif used to bind the integrin receptors, was labeled with compound 17. The characteristics of RGD/17 conjugate and the analogous dye carboxylate 16 were evaluated in a cell-based assay.
Compound 17 was conjugated to the peptide RGD by the general procedure set forth in Example 32.
The cell lines U87GM and PC3MLN4 were assayed. Assays included binding, blocking, and carboxylate control. Serial dilutions of compound 16 were prepared at concentrations of 200-6.25 nM. Blocking was accomplished with unlabeled RGD at concentrations of 10-0.31 μM with the addition of 200 nM compound 17-RGD conjugates in all test wells. The compound 16 was evaluated as a dye control for non-specific binding at relatively high levels from 5-0.16 μM with U87GM cells and 1-0.002 μM with PC3 cells.
In the second round of testing with U87GM cells, concentrations of unlabeled RGD and compound 17/RGD were increased (FIGS. 8A and 8B). Binding assay concentrations utilized 0.8-400 nM while the blocking assay used 0.06-30 μM unlabeled RGD with an addition of 200 nM 17/RGD.

Data set [1] can be described thus: In vivo clearance, Pearl Impulse imaging. Details: species or system nude mice. Particulars: for Total: 800 channel; for clearance in vivo (clearance series): FIG. 9, 1 nmole injected, imaged over 24 h. How it is done:
Two nude mice were injected with 1 nmole of either compound 16 or IRDye 800CW carboxylate. They were then imaged longitudinally over the next 24 h with the Pearl Impulse imaging system. The results are presented in FIG. 9: in vivo clearance in nudes (FIG. 9A), whole body dorsal views (FIG. 9B), and the rate of clearance (FIG. 9C). The clearance data is presented below in Table 4.

The nature of data set [2]: Absorption wavelength of the cyanine dyes in methanol (halo substitution effect). It is filed as physicochemical. Particulars: Table 2. An excerpt: Design Principle: We analyzed the properties of a dye scaffold and related compounds and the corresponding substitution effects on the excitation and emission wavelengths. The small size of fluorine is unlikely to produce steric effects, therefore, we explored the electronic effects of fluorine and related substitutions. The Hammett equation (σ-value) is an important tool to understand the electronic effects of the substituents, therefore, we explored the correlation of the wavelength (λMeOH) and the σ-value (vide infra): […]

Data set [3] is described as follows: Summary of photophysical properties (absorption, emission, relative fluorescence, quantum yield). The following applies: head is a formula, relative to IRDye 800 CW. The format is physicochemical.
For data set [4] the following is noted: value used for the standard IRDye 800 CW; cited from earlier work.

Regarding `CC1(C)C(/C=C/C2=C(c3c(F)cc(F)cc3F)C(=C/C=C3/N(CCCS(=O)(=O)[O-])c4ccc(S(=O)(=O)[O-])cc4C3(C)C)/CC(C(=O)O)C2)=[N+](CCCS(=O)(=O)[O-])c2ccc(S(=O)(=O)[O-])cc21.[Na+].[Na+].[Na+]` (stereo not drawn) [Compound 16], the “concentration above which relatively high non-specific binding of the dye alone was noted” value with U87GM cells was “above 2 μM”. Besides, the Total in data set [1] (1 min) is recorded as 109682.80; in data set [1] (17 min), 282046.59; in data set [1] (45 min), 286573.94; in data set [1] (71 min) it was 266647.59; in data set [1] (190 min) it was 139736.97; in data set [1] (276 min) it was 76493.30. This molecule also gave a Total in data set [1] (1435 min) of 1652.69. Besides, in data set [1], the “clearance in vivo (clearance series)” value is “good clearance in vivo”.

For the molecule `CCCCOc1c(F)c(F)c(C2=C(/C=C/C3=[N+](CCCCS(=O)(=O)[O-])c4ccc(S(=O)(=O)[O-])cc4C3(C)C)CCC/C2=C\C=C2\N(CCCCS(=O)(=O)[O-])c3ccc(S(=O)(=O)[O-])cc3C2(C)C)c(F)c1F.[Na+].[Na+].[Na+]` [Compound 24], in data set [2], the λMeOH is 790 nm.

In the case of `CC1(C)C(/C=C/C2=C(c3cccc(F)c3F)C(=C/C=C3/N(CCCCS(=O)(=O)[O-])c4ccc(S(=O)(=O)[O-])cc4C3(C)C)/CCC2)=[N+](CCCCS(=O)(=O)[O-])c2ccc(S(=O)(=O)[O-])cc21.[Na+].[Na+].[Na+]` [Compound 62k], in data set [3], the “[formula] Odyssey” value worked out at 104% and the “[formula] Fluorimeter” value is on record as 100%.

`CC1(C)C(/C=C/C2=C(c3cccc(F)c3F)C(=C/C=C3/N(CCCCS(=O)(=O)[O-])c4ccc(S(=O)(=O)[O-])cc4C3(C)C)/CC(C(=O)O)C2)=[N+](CCCCS(=O)(=O)[O-])c2ccc(S(=O)(=O)[O-])cc21.[Na+].[Na+].[Na+]` (stereo not drawn) [Compound 63a]: the λMeOH in data set [2] was determined as 770 nm.

On to `CC1(C)C(=CC=C2CCCC(C=CC3=[N+](CCCCCC(=O)[O-])c4ccc(S(=O)(=O)[O-])cc4C3(C)C)=C2Oc2ccc(S(=O)(=O)[O-])cc2)N(CCCCS(=O)(=O)[O-])c2ccc(S(=O)(=O)[O-])cc21.[Na+].[Na+].[Na+].[Na+]` [IRDye 800CW, reference compound], for which, in data set [3], the “[formula] Odyssey” value is on record as 100% and the “[formula] Fluorimeter” value is listed as 100%. For the same molecule, the “Quantum Yield of the standard” value in data set [4] is recorded as 0.07.

For the molecule “IRDye 800CW carboxylate [reference compound]”, the Total stood at 114295.49 in data set [1] (3 min); 306555.97 in data set [1] (19 min); 291381.69 in data set [1] (47 min); 272408.13 in data set [1] (74 min); 154950.09 in data set [1] (192 min); 102698.54 in data set [1] (278 min). In data set [1] (1439 min), this molecule displayed a Total of 2336.87. In data set [1], the “clearance in vivo (clearance series)” value is “good clearance in vivo”.
